Like-named read-outs stand apart in the source and are kept apart here.
Experiments:
Type in all cases: cell-based
[1] = system: E. coli; details: for Peptide MIC values: agarose dilution
[2] = system: A. calcoaceticus; details: A. calcoaceticus strain AC001
[3] = system: P. aeruginosa; details: for Peptide MIC values: agarose dilution
[4] = system: S. epidermidis; details: S. epidermidis strain SE010
[5] = system: bacterial isolates; assay: microbe, parasite or virus in culture
[6] = system: S. marcescens; details: for Peptide MIC values: agarose dilution
[7] = system: E. cloacae; details: E. cloacae strain ECL007
[8] = system: S. pneumoniae; assay: Agarose dilution assay (MIC); details: for MIC: S. pneumoniae strain SBSPN3; for Peptide MIC values: agarose dilution
[9] = system: P. vulgaris; assay: Agarose dilution assay (MIC); details: agarose dilution; P. vulgaris ATCC 13315
[10] = system: inherently resistant microorganisms; assay: microbe, parasite or virus in culture
[11] = system: S. aureus; details: for MIC: S. aureus strain SA004; for Peptide MIC values: agarose dilution
[12] = system: H. influenzae; assay: Agarose dilution assay (MIC); details: H. influenzae strain HIN002
[13] = system: K. pneumoniae; details: K. pneumoniae strain KP002
[14] = system: S. maltophilia; details: S. maltophilia strain SMA002
[15] = system: E. faecalis; details: E. faecalis strain EFS002
[16] = system: E. faecium; details: for Peptide MIC values: agarose dilution
[17] = system: microorganisms with acquired resistance; assay: microbe, parasite or virus in culture; details: for Peptide MIC Alone: Tobramycin section; for FIC: peptide + Tobramycin
[18] = E. coli SBECO2, Mupirocin section
[19] = peptide + Mupirocin, E. coli SBECO2
[20] = S. aureus SA025 (also SA025 MRSA)

Sequence: ILKKWPWWPWRK [MBI 11B4CN]
- MIC ([1]; E. coli strain ECO003): 16 µg/mL
- Peptide MIC values ([1]; E. coli ATCC 25922): 32 µg/mL
- Peptide MIC values ([1]; E. coli ESS): 8 µg/mL
- Peptide MIC values ([1]; E. coli NCTC 10418): 8 µg/mL
- MIC [2]: >128 µg/mL
- MIC ([3]; P. aeruginosa strain PA006): >128 µg/mL
- Peptide MIC values ([3]; P. aeruginosa ATCC 27853): >128 µg/mL
- Peptide MIC values ([3]; P. aeruginosa NCTC 10662): >128 µg/mL
- MIC [4]: 4 µg/mL
- Mupirocin MIC + Peptide ([5]; E. coli SBECO1): 30 µg/mL
- Peptide MIC + Mupirocin ([5]; E. coli SBECO1): 0.5 µg/mL
- Peptide MIC Alone ([5]; E. coli SBECO1, Mupirocin section): 8 µg/mL
- Mupirocin MIC + Peptide ([5]; E. coli SBECO2): 30 µg/mL
- Peptide MIC + Mupirocin ([5]; E. coli SBECO2): 2 µg/mL
- Peptide MIC Alone [5, 18]: 32 µg/mL
- FIC ([5]; peptide + Mupirocin, E. coli SBECO1): 0.36
- FIC [5, 19]: 0.09
- MIC ([6]; S. marcescens strain SBSM2): >128 µg/mL
- MIC ([6]; S. marcescens strain SMS004): >128 µg/mL
- Peptide MIC values ([6]; S. marcescens SM76): >128 µg/mL
- Peptide MIC values ([6]; S. marcescens SM82): >128 µg/mL
- MIC [7]: >128 µg/mL
- MIC [8]: 128 µg/mL
- Peptide MIC values ([8]; S. pneumoniae 406LE8): 128 µg/mL
- Peptide MIC values ([8]; S. pneumoniae 60120): >128 µg/mL
- Peptide MIC values ([8]; S. pneumoniae ATCC 49619): 64 µg/mL
- Peptide MIC values [9]: >128 µg/mL
- Peptide MIC + Mupirocin ([10]; E. coli): 8 µg/mL
- Peptide MIC Alone ([10]; E. coli, Mupirocin section): 16 µg/mL
- FIC ([10]; peptide + Mupirocin, E. coli): 0.53
- MIC [11]: 2 µg/mL
- Peptide MIC values ([11]; S. aureus ATCC 29213): 1 µg/mL
- Peptide MIC values ([11]; S. aureus MRSA9): 4 µg/mL
- Peptide MIC values ([11]; S. aureus MRSA13): 32 µg/mL
- Peptide MIC values ([11]; S. aureus MRSA17): 8 µg/mL
- Peptide MIC values ([11]; S. aureus SA206): 16 µg/mL
- MIC [12]: >128 µg/mL
- MIC [13]: 128 µg/mL
- MIC [14]: 64 µg/mL
- MIC [15]: 16 µg/mL
- Peptide MIC values [16]: 8 µg/mL

Sequence: ILKKWPWWPWK [MBI 11G13CN]
- MIC ([1]; E. coli strain ECO002): 32 µg/mL
- MIC ([1]; E. coli strain SBECO3): 32 µg/mL
- Peptide MIC values ([1]; E. coli ATCC 25922): 64 µg/mL
- Peptide MIC values ([1]; E. coli ESS): 32 µg/mL
- Peptide MIC values ([1]; E. coli NCTC 10418): 16 µg/mL
- MIC ([3]; P. aeruginosa strain PA004): >128 µg/mL
- Peptide MIC values ([3]; P. aeruginosa ATCC 27853): >128 µg/mL
- Peptide MIC values ([3]; P. aeruginosa NCTC 10662): >128 µg/mL
- Peptide MIC + Tobramycin ([5]; A. baumannii ABI001): 32 µg/mL
- Tobramycin MIC + Peptide ([5]; A. baumannii ABI001): 4 µg/mL
- Peptide MIC Alone ([5]; A. baumannii ABI001, Tobramycin section): 128 µg/mL
- Mupirocin MIC + Peptide ([5]; E. coli ECO5): 30 µg/mL
- Peptide MIC + Mupirocin ([5]; E. coli ECO5): 8 µg/mL
- Peptide MIC Alone ([5]; E. coli ECO5, Mupirocin section): 64 µg/mL
- Mupirocin MIC + Peptide ([5]; E. coli SBECO2): 30 µg/mL
- Peptide MIC + Mupirocin ([5]; E. coli SBECO2): 8 µg/mL
- Peptide MIC Alone [5, 18]: 64 µg/mL
- Peptide MIC + Tobramycin ([5]; P. aeruginosa PA022): 16 µg/mL
- Tobramycin MIC + Peptide ([5]; P. aeruginosa PA022): 4 µg/mL
- Peptide MIC Alone ([5]; P. aeruginosa PA022, Tobramycin section): >128 µg/mL
- Peptide MIC + Tobramycin [5, 20]: 2 µg/mL
- Tobramycin MIC + Peptide [5, 20]: 0.125 µg/mL
- Peptide MIC Alone ([5]; S. aureus SA025 (also SA025 MRSA), Tobramycin section): 4 µg/mL
- Peptide MIC + Tobramycin ([5]; S. maltophilia SMA029): 0.125 µg/mL
- Tobramycin MIC + Peptide ([5]; S. maltophilia SMA029): 64 µg/mL
- Peptide MIC Alone ([5]; S. maltophilia SMA029, Tobramycin section): >128 µg/mL
- Peptide MIC + Tobramycin ([5]; S. maltophilia SMA030): 0.125 µg/mL
- Tobramycin MIC + Peptide ([5]; S. maltophilia SMA030): 64 µg/mL
- Peptide MIC Alone ([5]; S. maltophilia SMA030, Tobramycin section): >128 µg/mL
- FIC ([5]; peptide + Mupirocin, E. coli ECO5): 0.43
- FIC [5, 19]: 0.16
- FIC ([5]; peptide + Tobramycin, A. baumannii ABI001): 0.50
- FIC ([5]; peptide + Tobramycin, P. aeruginosa PA022): 0.56
- FIC ([5]; peptide + Tobramycin, S. aureus SA025 (also SA025 MRSA)): 0.50
- FIC ([5]; peptide + Tobramycin, S. maltophilia SMA029): 0.50
- FIC ([5]; peptide + Tobramycin, S. maltophilia SMA030): 0.50
- MIC ([6]; S. marcescens strain SBSM1): >128 µg/mL
- Peptide MIC values ([6]; S. marcescens SM76): >128 µg/mL
- Peptide MIC values ([6]; S. marcescens SM82): >128 µg/mL
- Peptide MIC + Tobramycin ([17]; A. baumannii ABI001): 32 µg/mL
- Tobramycin MIC + Peptide ([17]; A. baumannii ABI001): 4 µg/mL
- Peptide MIC Alone ([17]; A. baumannii ABI001): 128 µg/mL
- Peptide MIC ([17]; E. faecium, combination with Mupirocin, in µg/mL): 32
- Peptide MIC + Tobramycin ([17]; P. aeruginosa PA022): 16 µg/mL
- Tobramycin MIC + Peptide ([17]; P. aeruginosa PA022): 4 µg/mL
- Peptide MIC Alone ([17]; P. aeruginosa PA022): >128 µg/mL
- FIC ([17]; A. baumannii ABI001): 0.50
- FIC ([17]; P. aeruginosa PA022): 0.56
- MIC [8]: 128 µg/mL
- Peptide MIC values ([8]; S. pneumoniae 406LE8): 128 µg/mL
- Peptide MIC values ([8]; S. pneumoniae 60120): >128 µg/mL
- Peptide MIC values ([8]; S. pneumoniae ATCC 49619): 128 µg/mL
- Peptide MIC values [9]: >128 µg/mL
- Peptide MIC + Tobramycin ([10]; S. aureus): 2 µg/mL
- Peptide MIC Alone ([10]; S. aureus, Tobramycin section): 4 µg/mL
- FIC ([10]; peptide + Tobramycin, S. aureus): 0.50
- MIC [11]: 4 µg/mL
- Peptide MIC values ([11]; S. aureus ATCC 29213): 1 µg/mL
- Peptide MIC values ([11]; S. aureus MRSA9): 8 µg/mL
- Peptide MIC values ([11]; S. aureus MRSA13): 64 µg/mL
- Peptide MIC values ([11]; S. aureus MRSA17): 16 µg/mL
- Peptide MIC values ([11]; S. aureus SA206): 32 µg/mL
- MIC [12]: >128 µg/mL
- MIC [15]: 64 µg/mL
- MIC ([16]; E. faecium strain EFM002): 16 µg/mL
- Peptide MIC values [16]: 32 µg/mL
